Experimental data from patent US8252958B2, “Use of guanabenz and its derivatives for making drugs for treating cystic fibrosis and diseases related to a protein addressing deficiency in the cells” (Centre National de la Recherche Scientifique (CNRS), priority 2006, dated 2012).

Experiments:
delF508-CFTR [1] = target: T1, delF508-CFTR (Homo sapiens, UniProt P13569, DEL508-508); assay: Competition experiments by the iodide efflux technique between guanabenz and the chaperone machinery of the ER; format: cell-based
T1 construct: The CF15 cells are human epithelial cells of nasal origin which express the ΔF508-CFTR gene; endogenous in cells; host or cells: CF15 human airway epithelial cells (F508del/F508del)
Experimental: The measurements of chloride ion transport in the cells were performed with the aid of the radioactive iodide efflux technique (Becq et al., 1999; Dormer et al., 2001). The tracer (^125I) is incorporated into the intracellular medium. Next, the quantity of radiotracer which leaves the cell is counted after the addition of various pharmacological agents. The iodide is used as chloride ion transport tracer. ^125I further has the advantage of having a short life compared with that of other markers such as […] (respective ½ life: […] and 300 000 years).
The cells are cultured on 24-well plates in a suitable medium. Two rinses with efflux medium (NaCl: 136.6 mM, KCl: 5.4 mM, KH2PO4: 0.3 mM, NaH2PO4: 0.3 mM, NaHCO3: 4.2 mM, CaCl2: 1.3 mM, MgCl2: 0.5 mM, MgSO4: 0.4 Mm, HEPES: 10 mM, D-glucose: 5.6 mM) are performed in order to remove the dead cells which anarchically release radioactivity. Next, the cells are incubated with 500 μl of load (1 μCi/ml of ^125INa) for 30 min for the CHO-WT cells or 1 h for the CF15 and Calu-3 cells. The iodide forms an equilibrium on either side of the cell membrane. The robot (MultiPROBE, Packard) carries out the following steps: the load medium is rinsed with efflux medium in order to remove the extracellular radioactivity. The supernatant is collected every minute in hemolysis tubes and the medium is replaced with an equivalent volume (500 μl). No drug is added to the samples collected for the first 3 minutes, they make it possible to obtain a stable baseline, characterizing the passive outflow of the I ions. […] At the end of the experiment, the cells are lysed by adding 500 μl of NaOH (0.1N)/0.1% SDS (30 min), thus the radioactivity remaining inside the cell can be determined. The radioactivity present in the hemolysis tubes is counted in counts per minute (cpm) using a gamma counter (Cobra II, Packard). […] In order to quantify the outflow of iodide due to the administration of the test molecule, the following relative flow is calculated, which makes it possible to dispense with the basal flow: relative speed (min^−1)=Rpic−Rbasal. […]

delF508-CFTR [2] = target: T1, delF508-CFTR; assay: Iodide efflux (radiotracer) after 2 h treatment of CF15 cells, forskolin activation; format: cell-based

T1 sequence (P13569 with tags, fused parts or gaps DEL508-508): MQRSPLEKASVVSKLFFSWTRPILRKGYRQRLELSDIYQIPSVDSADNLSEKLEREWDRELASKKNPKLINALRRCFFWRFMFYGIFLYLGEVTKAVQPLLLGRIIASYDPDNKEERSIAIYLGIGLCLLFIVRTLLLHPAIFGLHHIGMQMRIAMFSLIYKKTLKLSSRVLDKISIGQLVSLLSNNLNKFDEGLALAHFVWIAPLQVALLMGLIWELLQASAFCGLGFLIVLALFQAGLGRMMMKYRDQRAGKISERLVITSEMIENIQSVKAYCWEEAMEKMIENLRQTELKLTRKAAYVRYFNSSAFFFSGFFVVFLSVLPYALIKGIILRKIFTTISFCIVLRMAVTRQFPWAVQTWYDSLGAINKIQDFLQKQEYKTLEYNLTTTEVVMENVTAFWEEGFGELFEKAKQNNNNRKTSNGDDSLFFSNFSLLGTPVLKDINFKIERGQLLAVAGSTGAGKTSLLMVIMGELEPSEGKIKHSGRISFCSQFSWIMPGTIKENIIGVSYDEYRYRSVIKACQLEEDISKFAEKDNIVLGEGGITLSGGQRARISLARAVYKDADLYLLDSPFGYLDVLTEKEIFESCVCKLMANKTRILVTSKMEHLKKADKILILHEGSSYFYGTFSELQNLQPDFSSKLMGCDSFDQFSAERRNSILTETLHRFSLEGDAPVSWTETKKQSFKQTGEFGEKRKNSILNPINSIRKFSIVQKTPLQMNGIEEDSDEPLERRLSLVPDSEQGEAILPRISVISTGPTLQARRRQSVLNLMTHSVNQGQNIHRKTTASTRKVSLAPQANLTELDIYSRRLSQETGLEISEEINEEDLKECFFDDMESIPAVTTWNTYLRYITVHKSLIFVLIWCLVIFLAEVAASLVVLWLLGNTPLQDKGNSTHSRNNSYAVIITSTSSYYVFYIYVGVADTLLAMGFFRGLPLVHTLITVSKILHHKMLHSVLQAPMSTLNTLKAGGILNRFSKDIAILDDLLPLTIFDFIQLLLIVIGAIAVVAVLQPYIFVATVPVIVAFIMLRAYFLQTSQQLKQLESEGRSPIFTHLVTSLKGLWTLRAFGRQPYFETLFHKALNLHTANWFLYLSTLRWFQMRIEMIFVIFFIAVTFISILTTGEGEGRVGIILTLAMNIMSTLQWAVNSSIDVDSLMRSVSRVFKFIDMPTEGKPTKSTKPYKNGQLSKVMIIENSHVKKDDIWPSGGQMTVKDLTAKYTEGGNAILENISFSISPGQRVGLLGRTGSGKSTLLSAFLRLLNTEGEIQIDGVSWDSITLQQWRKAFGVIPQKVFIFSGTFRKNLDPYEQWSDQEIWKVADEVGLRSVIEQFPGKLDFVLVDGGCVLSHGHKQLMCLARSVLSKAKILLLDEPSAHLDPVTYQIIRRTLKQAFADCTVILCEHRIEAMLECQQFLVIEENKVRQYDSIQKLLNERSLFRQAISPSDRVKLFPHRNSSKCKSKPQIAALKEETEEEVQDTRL

N=C(N)N/N=C/c1c(Cl)cccc1Cl [guanabenz]
effect of guanabenz in the presence of Brefeldine-A (BFA) (delF508-CFTR [1]; BFA, inhibitor of vesicular ERGIC traffic): inhibition of the effect of guanabenz
effect of guanabenz in the presence of MG132 (delF508-CFTR [1]; MG132, proteasome inhibitor): No modulation of the effect of guanabenz
effect of guanabenz in the presence of swainsonine (delF508-CFTR [1]; swainsonine, mannosidase inhibitor): low potentiation of the effect of guanabenz
readdressing of the mutated protein F508del-CFTR to the membrane (delF508-CFTR [2]; CF15 cells (F508del/F508del) treated with guanabenz): allows readdressing of the mutated protein F508del-CFTR to the membrane
EC50 (delF508-CFTR [2]; CF15 cells, 2 h of treatment, iodide efflux, read-out: EC50 of readdressing of the protein F508del-CFTR): 40 µM
